The inhibition is the drop in the measured response relative to a control, in per cent.

Consider 18 compounds from ChEMBL document CHEMBL1121680, “2,4-Diamino-5-benzylpyrimidines and analogues as antibacterial agents. 5. 3',5'-Dimethoxy-4'-substituted-benzyl analogues of trimethoprim” (J Med Chem, 1981).

Assay [1] addresses T1, Dihydrofolate reductase (Rattus norvegicus) (UniProt Q920D2).
T1 sequence (whole entry): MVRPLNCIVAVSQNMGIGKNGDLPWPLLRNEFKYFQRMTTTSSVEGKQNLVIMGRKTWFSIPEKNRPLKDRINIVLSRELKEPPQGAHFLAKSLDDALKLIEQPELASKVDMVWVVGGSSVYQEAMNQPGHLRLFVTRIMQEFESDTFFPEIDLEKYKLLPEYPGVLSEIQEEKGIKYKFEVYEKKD
In words: Percent inhibition of compound against Dihydrofolate Reductase(DHFR) of rat liver at 40000 M.

The target in assay [2] is T2, Dihydrofolate reductase (Rattus norvegicus, UniProt Q920D2).
T2 sequence (Q920D2 whole entry): T1 sequence (whole entry)
Description: Inhibition of rat liver Dihydrofolate reductase. Particulars: read-out: I50.

Assay [3] concerns the target T1, Dihydrofolate reductase (Rattus norvegicus). In words: Compound was tested for inhibitory activity against Dihydrofolate reductase of rat liver at 10000 M.
Assay [4] has the same target. In words: Compound was tested for inhibitory activity against Dihydrofolate reductase of rat liver at 22400 M.
Assay [5] has the same target. Description: Compound was tested for inhibitory activity against Dihydrofolate reductase of rat liver at 40000 M.
The target is the same in assay [6]. Description: Compound was tested for inhibitory activity against Dihydrofolate reductase of rat liver at 2400 M.
In assay [7] the target is T2, Dihydrofolate reductase. In words: Compound was tested for inhibitory activity against Dihydrofolate Reductase of rat liver. Particulars: read-out: I50.
In assay [8] the target is T1, Dihydrofolate reductase (Rattus norvegicus). In words: Percent inhibition of compound against Dihydrofolate Reductase of rat liver at 27400 M.
Another assay deals with Oryctolagus cuniculus. Description: Peak serum concentration reached within 1 hr of administration of 5 mg/kg oral dose. In kind it is functional, organism-based. More on the design: dose 5 mg/kg.
The species named for assay [9] is Mus musculus. Particulars: Serum.
For assay [10], the species on record is Mus musculus. Particulars: Serum. The source holds these as a separate data set.
The target of assay [11] is T1, Dihydrofolate reductase (Rattus norvegicus). Description: Compound was tested for inhibitory activity against Dihydrofolate reductase of rat liver at 1000 µM. As to conditions: 1000 M.

In assay [1], `COc1cc(Cc2cnc(N)nc2N)cc(OC)c1OC(C)C` had an inhibition of 9%.
For `COc1cc(Cc2cnc(N)nc2N)cc(OC)c1OCCN1CCOCC1`, the IC50 on Dihydrofolate reductase [2] is more than 440 µM.
For `COc1cc(Cc2cnc(N)nc2N)cc(OC)c1OCCO`, on Dihydrofolate reductase [2], the IC50 was more than 400 µM.
On to `COc1cc(Cc2cnc(N)nc2N)cc(OC)c1OCCCN`, for which the inhibition in [3] worked out at 39%.
Compound `COc1cc(Cc2cnc(N)nc2N)cc(OC)c1OCC(=O)O` returned an inhibition in assay [4] of 20%.
For the compound `CCOC(=O)COc1c(OC)cc(Cc2cnc(N)nc2N)cc1OC`, the inhibition in assay [5] was found to be 12%.
In the case of `COC(=O)CCCCCOc1c(OC)cc(Cc2cnc(N)nc2N)cc1OC`, the IC50 on Dihydrofolate reductase [2] was 1100 µM.
On to `CCCCCCOc1c(OC)cc(Cc2cnc(N)nc2N)cc1OC`, for which the IC50 on Dihydrofolate reductase [2] was found to be 200 µM.
On the same count and under the same terms, as for `CCCCCOc1c(OC)cc(Cc2cnc(N)nc2N)cc1OC`, the figure is 270 µM.
Still for that read-out and setting: as for `COc1cc(Cc2cnc(N)nc2N)cc(OC)c1OCCCCCCN`, the figure is 560 µM.
Take `COc1cc(Cc2cnc(N)nc2N)cc(OC)c1OCCCCCCN1C(=O)c2ccccc2C1=O`: the inhibition in [6] turned out to be 25%.
With `COc1cc(Cc2cnc(N)nc2N)cc(OC)c1OCCCN1CCN(C)CC1`, the inhibition in assay [5] is 36%.
For the compound `COc1cc(Cc2cnc(N)nc2N)cc(OC)c1OCc1ccccc1`, the IC50 on Dihydrofolate reductase [2] was 47 µM.
For the compound `CCCOc1c(OC)cc(Cc2cnc(N)nc2N)cc1OC`, on Dihydrofolate reductase [7], the IC50 was found to be 250 µM.
With `COc1cc(Cc2cnc(N)nc2N)cc(OC)c1OCC(O)CO` (stereo not given), in assay [8], the inhibition came out at 32%.
`COc1cc(Cc2cnc(N)nc2N)cc(OC)c1OC` gave a Concentration in the assay on Oryctolagus cuniculus of 2 µg/mL. Besides, the results for the T1/2 in the assay filed under Mus musculus [9] and in the assay listed under Mus musculus [10] were 0.76 h and 2.7 h, respectively.
As to `COc1cc(Cc2cnc(N)nc2N)cc(OC)c1Oc1ccc(N)cc1`, in [11], the inhibition is 8%.
Turning to `COc1cc(Cc2cnc(N)nc2N)cc(OC)c1OCCCN1C(=O)c2ccccc2C1=O`, the IC50 on Dihydrofolate reductase [2] is 69 µM.
